Article PMC8892522 (Proceedings of the National Academy of Sciences of the …, 2022)

How the values were obtained:
[1] = molecular target: T1, soluble epoxide hydrolase (sEH) (Mus musculus, UniProt P34914); experiment: fluorescent substrate; format: biochemical
T1 sequence (P34914 1-554): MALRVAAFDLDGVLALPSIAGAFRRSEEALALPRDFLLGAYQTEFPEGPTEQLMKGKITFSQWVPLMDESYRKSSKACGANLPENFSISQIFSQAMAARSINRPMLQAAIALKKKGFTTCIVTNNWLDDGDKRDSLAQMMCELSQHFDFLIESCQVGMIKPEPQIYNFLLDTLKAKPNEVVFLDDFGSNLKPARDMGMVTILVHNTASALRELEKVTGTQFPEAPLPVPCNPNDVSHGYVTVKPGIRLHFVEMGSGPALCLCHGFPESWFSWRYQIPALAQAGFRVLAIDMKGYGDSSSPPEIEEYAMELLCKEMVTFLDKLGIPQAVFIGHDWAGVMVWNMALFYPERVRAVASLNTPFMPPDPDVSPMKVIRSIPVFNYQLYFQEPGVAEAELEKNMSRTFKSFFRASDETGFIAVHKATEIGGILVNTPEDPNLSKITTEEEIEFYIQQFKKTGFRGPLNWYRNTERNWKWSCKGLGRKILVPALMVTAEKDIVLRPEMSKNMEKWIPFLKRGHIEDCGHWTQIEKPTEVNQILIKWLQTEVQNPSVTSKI

[2] = molecular target: T2, soluble epoxide hydrolase (sEH) (Homo sapiens, UniProt P34913); experiment: cocrystal structure; format: binding
T2 sequence (P34913 230-555): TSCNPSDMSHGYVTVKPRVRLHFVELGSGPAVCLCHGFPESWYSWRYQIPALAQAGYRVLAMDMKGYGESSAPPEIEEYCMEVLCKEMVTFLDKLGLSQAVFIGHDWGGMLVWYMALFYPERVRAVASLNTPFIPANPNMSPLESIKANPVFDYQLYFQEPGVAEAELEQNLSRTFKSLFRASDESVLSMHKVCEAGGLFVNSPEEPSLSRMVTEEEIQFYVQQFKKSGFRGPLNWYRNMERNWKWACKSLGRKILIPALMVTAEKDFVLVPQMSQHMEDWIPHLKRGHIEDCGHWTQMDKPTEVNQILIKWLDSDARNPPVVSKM

C=C(C)[C@H](CC=C(C)C)Cc1c(O)cc(OC)c2c1O[C@H](c1ccc(O)cc1O)CC2=O [kurarinone]
IC50 [1]: 420 nM
Kd [2]: 1450 nM
